Laboratory results reported in EP0956287B1, “3-ARYL-2-(1-SUBSTITUTED-4-PIPERIDINYL)-1(1-DI)OXO-3H-BENZO D]-ISOTHIAZOLE DERIVATIVES, THEIR PREPARATION AND THEIR USE AS MODULATORS OF NEUROTRANSMITTER FUNCTION” (Aventis Pharmaceuticals Inc., priority 1996, dated 1998).
Counter-ions that a name gives are not always drawn.

Assays:
Assay type in all cases: biochemical
[1] = molecular target: T1, norepinephrine (NE) uptake (Rattus norvegicus, UniProt Q63380); assay: Inhibition of [3H]-norepinephrine uptake in rat whole brain or hypothalamic synaptosomes; conditions: [3H]-NE 50 nM
T1 construct: Either whole brain minus cerebella or hypothalamus is weighed and homogenized in 9 volumes of ice-cold 0.32 M sucrose; from tissue; host or cells: rat whole brain minus cerebella or hypothalamus, crude synaptosomal supernatant (S1)
T1 sequence (Q63380 1-617): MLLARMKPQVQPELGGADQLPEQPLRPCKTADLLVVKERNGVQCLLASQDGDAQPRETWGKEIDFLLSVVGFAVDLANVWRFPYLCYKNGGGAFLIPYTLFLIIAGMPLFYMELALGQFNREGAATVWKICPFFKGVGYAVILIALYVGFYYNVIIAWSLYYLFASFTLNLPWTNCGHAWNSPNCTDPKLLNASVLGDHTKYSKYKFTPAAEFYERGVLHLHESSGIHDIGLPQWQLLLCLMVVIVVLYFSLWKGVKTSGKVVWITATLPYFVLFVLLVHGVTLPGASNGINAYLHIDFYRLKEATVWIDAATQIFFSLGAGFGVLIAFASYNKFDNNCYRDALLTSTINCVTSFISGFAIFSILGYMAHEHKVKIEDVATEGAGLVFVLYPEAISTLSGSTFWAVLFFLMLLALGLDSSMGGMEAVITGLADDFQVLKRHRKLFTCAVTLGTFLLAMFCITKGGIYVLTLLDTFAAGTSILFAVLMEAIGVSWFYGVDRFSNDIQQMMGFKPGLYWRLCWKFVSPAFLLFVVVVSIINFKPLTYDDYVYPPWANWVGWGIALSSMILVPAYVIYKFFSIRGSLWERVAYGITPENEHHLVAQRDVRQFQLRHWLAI
Experimental: Inhibition of [^3H]-Norepinephrine Uptake in Rat Whole Brain or Hypothalamic Synaptosomes
This assay is used as a biochemical screen for potential antidepressants which block norepinephrine uptake.
(§1) A. Animals: Male CR Wistar rats (100-125 g).
(§2) 1. Krebs-Henseleit Bicarbonate Buffer, pH 7.4 (KHBB): Make a 1 liter batch, containing the following salts.
Aerate for 60 minutes with 95% O2/5% CO2, check pH (7.4±0.1); then add bovine serum albumin (Sigma cat#A-7906) 1 mg/ml. 2. 0.32M Sucrose: 21.9 g of sucrose, bring to 200 ml. 3. L(-)-Norepinephrine bitartrate is obtained from Sigma Chemical Co. A 0.1 mM stock solution is made up in 0.01 N HCl. This is used to dilute the specific activity of theradiolabeled NE. 4. Levo-[Ring-2,5,6-^3H]-Norepinephrine (40-50 Ci/mmol) is obtained from New England Nuclear. The final desired concentration of [^3H]-NE in the assay is 50 nM. The dilution factor is 0.8. Therefore, the KHBB is made up to contain 62.5 nM [^3H]-NE. Add to 100 ml of KHBB.
(§3) 5. For most assays, a 1 mM stock solution of the test compound is made up in a suitable solvent and serially diluted such that the final concentration in the assay ranges from 2 x 10^-8 to 2 x 10^-5 M. Seven concentrations are used for each assay. Higher or lower concentrations may be used depending on the potency of the compound.
(§4) Male Wistar rats are decapitated and the brain rapidly removed. Either whole brain minus cerebella or hypothalamus is weighed and homogenized in 9 volumes of ice-cold 0.32 M sucrose using a Potter-Elvejhem homogenizer. Homogenization should be done with 4-5 up and down strokes at medium speeds to minimize synaptosome lysis. TH homogenate is centrifuged at 1000 g for 10 minutes at 0° 4°C. The supernatant (S1) is decanted and is used for uptake experiments.
• 800 µl KHBB [^3H]-NE • 20 µl Vehicle or appropriate drug concentration • 200 µl Tissue suspension
Tubes are incubated at 37°C, under a 95% O2/5% CO2 atmosphere for 5 minutes. For each assay, 3 tubes are incubated with 20 µl of vehicle at 0°C in a ice bath. After incubation all tubes are immediately centrifuged at 4000 g for 10 minutes. The supernatant fluid is aspirated and the pellets dissolved by adding 1 ml of solubilizaer (Triton® X-100 + 50% EtOH, 1:4 v/v). The tubes are vigorously shaken decanted into scientillation vials, and counted in 10 ml of Liquiscint® scintillation countering cocktail. Active uptake is the difference between cpm at 37°C. and 0°C. The percent inhibition at each drug concentration is the mean of three determinations IC50 values are derived from log-probit analysis.

serotonin (5HT) uptake = molecular target: T2, serotonin (5HT) uptake (Rattus norvegicus, UniProt P31652); assay: Inhibition of [3H]-serotonin uptake in rat whole brain synaptosomes; conditions: [3H]-5 HT 50 nM
T2 construct: Whole brain minus cerebella is weighed and homogenized in 9 volumes of ice-cold 0.32 M sucrose; from tissue; host or cells: rat whole brain minus cerebella, crude synaptosomal supernatant (S1)
T2 sequence (P31652 whole entry): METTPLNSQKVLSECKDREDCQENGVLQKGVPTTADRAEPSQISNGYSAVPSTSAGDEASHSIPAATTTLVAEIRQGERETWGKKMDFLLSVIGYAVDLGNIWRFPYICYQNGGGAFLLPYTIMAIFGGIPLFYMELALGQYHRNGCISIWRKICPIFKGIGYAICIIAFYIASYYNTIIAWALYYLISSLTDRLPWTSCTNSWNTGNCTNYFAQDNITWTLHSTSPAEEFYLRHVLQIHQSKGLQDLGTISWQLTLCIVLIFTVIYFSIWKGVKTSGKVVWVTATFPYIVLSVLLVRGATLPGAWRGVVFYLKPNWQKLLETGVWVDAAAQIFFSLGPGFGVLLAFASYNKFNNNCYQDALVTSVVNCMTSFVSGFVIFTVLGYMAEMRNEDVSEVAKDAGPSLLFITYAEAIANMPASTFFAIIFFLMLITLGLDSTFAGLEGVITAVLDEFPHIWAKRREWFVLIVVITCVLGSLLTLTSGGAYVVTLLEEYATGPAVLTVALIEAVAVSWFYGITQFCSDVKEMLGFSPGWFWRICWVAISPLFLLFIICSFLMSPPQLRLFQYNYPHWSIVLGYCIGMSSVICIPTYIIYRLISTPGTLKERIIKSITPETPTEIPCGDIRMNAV
Experimental: Inhibition of [^3H]-Serotonin Uptake in Rat Whole Brain Synaptosomes
This assay is used a biochemical screen for compounds which block serotonin (5 HT) uptake, which may be useful as antidepressants and for the treatment of personality disorders such as obsessive compulsive disorder.
as §1, §2
Aerate for 60 minutes with 95% O2/5% CO2, check pH (7.4±0.1). 2. 0.32 M Sucrose: 21.9 g of sucrose, bring to 200 ml. 3. Serotonin creatinine SO4 is obtained from Sigma Chemical Co. A 0.1 mM stock solution is made up in 0.01N HCl. This is used to dilute the specific activity of radiolabeled 5 HT. 4. 5-[1,2-^3H(N)]-Hydroxytryptamine creatinine sulfate (Serotonin), specific activity 20-30 Ci/mmol is obtained from New England Nuclear. The final desired concentration of ^3H-5 HT in the assay is 50 nM. The dilution factor is 0.8. Therefore, the KHBB is made up to contain 62.5 nM [^3H]--5 HT. Add to 100 ml of KHBB.
as §3, with “mM” for “mM stock”, “in” for “in a”
as §4, with “Whole” for “Either whole”, “cerebella” for “cerebella or hypothalamus”, “The” for “TH”, “0° -” for “0°”
• 800 µl KHBB + [^3H]-5 HT. • 20 µl Vehicle or appropriate drug concentration • 200 µl Tissue suspension
(§5) Tubes are incubated at 37°C under a 95% O2/5% CO2 atmosphere for 5 minutes. For each assay, 3 tubes are incubated with 20 µl of vehicle at 0°C in an ice bath. After incubation all tubes are immediately centrifuged at 4000 g for 10 minutes. The supernatant fluid is aspirated and the pellets dissolved by adding 1 ml of solubilizer (Triton® X-100 + 50% EtOH, 1:4 v/v). The tubes are vigorously shaken, decanted into scintillation vials, and counted in 10 ml of Liquicint® scintillation counting cocktail. Active uptake is the difference between cpm at 37°C and 0°C. The percent inhibition at each drug concentration is the mean of three determinations. IC50 values are derived from log-probit analysis.

dopamine (DA) uptake = molecular target: T3, dopamine (DA) uptake (Rattus norvegicus, UniProt P23977); assay: Inhibition of 3H-dopamine uptake in rat striatal synaptosomes; conditions: head says whole brain synaptosomes, method uses striatal synaptosomes, 3H-DA 50 nM
T3 construct: Corpora striata are rapidly removed, weighed and homogenized in 9 volumes of ice-cold 0.32 M sucrose; from tissue; host or cells: rat corpora striata, crude synaptosomal supernatant (S1)
T3 sequence (P23977 whole entry): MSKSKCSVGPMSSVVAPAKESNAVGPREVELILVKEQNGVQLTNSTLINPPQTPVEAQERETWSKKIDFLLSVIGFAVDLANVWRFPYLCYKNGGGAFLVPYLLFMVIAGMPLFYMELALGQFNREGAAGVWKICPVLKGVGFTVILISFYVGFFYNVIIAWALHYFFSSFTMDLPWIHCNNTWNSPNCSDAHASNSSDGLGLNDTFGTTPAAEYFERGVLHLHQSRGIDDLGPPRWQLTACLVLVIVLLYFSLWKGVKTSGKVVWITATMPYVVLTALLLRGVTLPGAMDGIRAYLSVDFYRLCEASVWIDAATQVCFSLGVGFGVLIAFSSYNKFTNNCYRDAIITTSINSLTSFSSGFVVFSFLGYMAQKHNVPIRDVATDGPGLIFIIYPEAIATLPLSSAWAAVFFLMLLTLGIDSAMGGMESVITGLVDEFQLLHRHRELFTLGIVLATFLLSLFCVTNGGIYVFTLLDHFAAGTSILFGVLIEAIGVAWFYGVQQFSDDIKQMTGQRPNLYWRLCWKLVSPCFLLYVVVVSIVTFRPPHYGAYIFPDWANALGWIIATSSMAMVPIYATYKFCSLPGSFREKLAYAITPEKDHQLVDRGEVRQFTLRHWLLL
Experimental: Inhibition of ^3H-Dopamine Uptake in Rat Striatal Synaptosomes
this assay is used to show differential drug effects on dopamine uptake versus nerepppinephrine uptake and to identify therapeutic agents for diseases where the potentiation of dopaminergic activity may be helpful (e.g. Parkinson's Disease).
as §1
1. Krebs-Henseleit Bicarbonate Buffer, pH 7.4 (KHBB): Make a 1 liter batch containing the following salts:
Aerate for 60 minutes with 95% O2/5% CO2, check pH (7.4±0.1). 2. 0.32 M Sucrose: 21.9 g of sucrose, bring to 200 ml. 3. Dopamine HCl is obtained from Sigma Chemical Co. A 0.1 mM stock solution is made up in 0.01N HCI. This is used to dilute the specific activity of radiolabeled 5 HT. 4. 3,4-[8-^3H(N)]-Dihydroxyphenylethylamine (Dopamine), specific activity 4-34 Ci/mmol is obtained from New England Nuclear. The final desired concentration of ^3H-DA in the assay is 50 nM. The dilution factor is 0.9. Therefore, the KHBB is made up to contain 55.5 nM [^3H]-5 DA. Add to 100 ml of KHBB.
as §3, with “1mM” for “1 mM”
as §4, with “Corpora striata are rapidly removed,” for “Either whole brain minus cerebella or hypothalamus is”, “The” for “TH”, “0°-” for “0°”
• 900 µl KHBB + [^3H]-DA. • 20 µl Vehicle or appropriate drug concentration • 100 µl Tissue suspension
as §5, with “Liquiscint®” for “Liquicint®”

Row | Structure (SMILES) | Whole brain synaptosomes % inhibition at 3.16 µm NE [1] [%] | Whole brain synaptosomes % inhibition at 3.16 µm 5HT (serotonin (5HT) uptake) [%] | Whole brain synaptosomes % inhibition at 3.16 µm DA (dopamine (DA) uptake) [%]
1 | COc1cc(C(C)=O)ccc1OCCCN1CCC(N2C(c3ccc(Cl)cc3)c3ccccc3S2(=O)=O)CC1 (stereo not drawn) [1-[4-(3-{4-[3-(4-Chlorophenyl)-1,1-dioxo-3H-benzo[d]isothiazol-2-yl]-1-piperidin-1-yl}-propoxy)-3-methoxyphenyl]-ethanone maleate] | 55.23 | 48.78 | 67.94
2 | Cl.O=S1(=O)c2ccccc2C(c2ccc(F)cc2)N1C1CCNCC1 (stereo not drawn) [3-(4-Fluorophenyl)-2-(4-piperidinyl)-2,3-dihydrobenzo[d]isothiazole-1,1-dioxide hydrochloride] | 25.02 | 37.92 | 30.34
3 | O=C(O)/C=C\C(=O)O.O=S1(=O)c2ccccc2C(c2ccc(Cl)cc2)N1C1CCN(CCO)CC1 (stereo not drawn) [2-{4-[3-(4-Chlorophenyl)-1,1-dioxo-3H-benzo[d]isothiazol-2-yl]-piperidin-1-yl}-ethanol maleate] | 8.71 | 3.68 | 18.71
4 | O=C(O)/C=C\C(=O)O.O=C1c2ccccc2C(=O)N1CCCN1CCC(N2C(c3ccc(Cl)cc3)c3ccccc3S2(=O)=O)CC1 (stereo not drawn) [2-(3-{4-[3-(4-Chlorophenyl)-1,1-dioxo-3H-benzo[d]isothiazol-2-yl]piperidin-1-yl}propyl)-isoindol-1,3-dione maleate] | 28.37 | 29.02 | 57.36
